Where two headings read alike, the source gives them in different places.
System: carbapenem-resistant P. aeruginosa strains
Assay: microbe, parasite or virus in culture
Format: cell-based, Pseudomonas aeruginosa
Settings: for MIC: Pseudomonas aeruginosa; for MIC Combination / MIC Alone: vs. WC-452
Procedure: Such resensitization may be determined by combining the present lysins or lysin-AMP polypeptide constructs with an antibiotic in a checkerboard assay as described herein. Antibiotic-resistant bacteria, such as carbapenem-resistant P. aeruginosa, are added to the lysin or lysin-AMP polypeptide construct combination. […] See Clinical and Laboratory Standards Institute (CLSI), CLSI. […] M100 Performance Standards for Antimicrobial Susceptibility Testing; 29th Edition. Clinical and Laboratory Standards Institute, Wayne, Pa., which is herein incorporated by reference in its entirety.
Up to seven carbapenem-resistant isolates were assessed. […] See Clinical and Laboratory Standards Institute (CLSI), CLSI. […] M100 Performance Standards for Antimicrobial Susceptibility Testing; 29th Edition. Clinical and Laboratory Standards Institute, Wayne, Pa.

C[C@@H](O)[C@H]1C(=O)N2C(C(=O)O)=C(SCCN=CN)C[C@H]12 [Imipenem, imipenem]
1 µg/mL: MIC (μg/mL) Combination (isolate PA19, Imipenem combined with GN121) | MIC (μg/mL) Combination (isolate PA20, IMIPENEM combined with GN123) | MIC (μg/mL) Combination (isolate PA21, Imipenem combined with GN121) | MIC (μg/mL) Combination (isolate PA24, Imipenem combined with GN121) | MIC (μg/mL) Combination (isolate WC-452, IMIPENEM combined with GN123) | MIC Combination (IPM combined with GN428)
16 µg/mL: MIC (GN121, read-out: MIC (μg/mL) Alone, isolate PA20, checkerboard Imipenem + GN121) | MIC (GN121, read-out: MIC (μg/mL) Alone, isolate PA23, checkerboard Imipenem + GN121) | MIC (GN123, read-out: MIC (μg/mL) Alone, isolate PA20, checkerboard IMIPENEM + GN123) | MIC (GN123, read-out: MIC (μg/mL) Alone, isolate PA22, checkerboard IMIPENEM + GN123) | MIC (GN123, read-out: MIC (μg/mL) Alone, isolate WC-452, checkerboard IMIPENEM + GN123) | MIC Alone (checkerboard IPM + GN351) | MIC Alone (checkerboard IPM + GN370) | MIC Alone (checkerboard IPM + GN428)
8 µg/mL: MIC (GN123, read-out: MIC (μg/mL) Alone, isolate PA23, checkerboard IMIPENEM + GN123)
0.25 µg/mL: MIC (μg/mL) Combination (isolate PA23, IMIPENEM combined with GN123)
0.5 µg/mL: MIC (μg/mL) Combination (isolate PA19, IMIPENEM combined with GN123) | MIC (μg/mL) Combination (isolate PA20, Imipenem combined with GN121) | MIC (μg/mL) Combination (isolate PA21, IMIPENEM combined with GN123) | MIC Combination (IPM combined with GN351) | MIC Combination (IPM combined with GN370)
32 µg/mL: MIC (GN121, read-out: MIC (μg/mL) Alone, isolate PA21, checkerboard Imipenem + GN121) | MIC (GN123, read-out: MIC (μg/mL) Alone, isolate PA19, checkerboard IMIPENEM + GN123) | MIC (GN123, read-out: MIC (μg/mL) Alone, isolate PA21, checkerboard IMIPENEM + GN123) | MIC (GN123, read-out: MIC (μg/mL) Alone, isolate PA24, checkerboard IMIPENEM + GN123)
2 µg/mL: MIC (μg/mL) Combination (isolate PA22, IMIPENEM combined with GN123) | MIC (μg/mL) Combination (isolate PA22, Imipenem combined with GN121) | MIC (μg/mL) Combination (isolate PA24, IMIPENEM combined with GN123)
0.125 µg/mL: MIC (μg/mL) Combination (isolate PA23, Imipenem combined with GN121)
(R) ((R) = resistant): susceptibility category of the isolate, carbapenem Alone (isolate PA19) | susceptibility category of the isolate, carbapenem Alone (isolate PA20) | susceptibility category of the isolate, carbapenem Alone (isolate PA21) | susceptibility category of the isolate, carbapenem Alone (isolate PA22) | susceptibility category of the isolate, carbapenem Alone (isolate PA23) | susceptibility category of the isolate, carbapenem Alone (isolate PA24) | susceptibility category of the isolate, carbapenem Alone (isolate WC-452)
(S) ((S) = sensitive): susceptibility category of the isolate, carbapenem in Combination (isolate PA19, combined with GN121) | susceptibility category of the isolate, carbapenem in Combination (isolate PA19, combined with GN123) | susceptibility category of the isolate, carbapenem in Combination (isolate PA20, combined with GN121) | susceptibility category of the isolate, carbapenem in Combination (isolate PA20, combined with GN123) | susceptibility category of the isolate, carbapenem in Combination (isolate PA21, combined with GN121) | susceptibility category of the isolate, carbapenem in Combination (isolate PA21, combined with GN123) | susceptibility category of the isolate, carbapenem in Combination (isolate PA22, combined with GN121) | susceptibility category of the isolate, carbapenem in Combination (isolate PA22, combined with GN123) | susceptibility category of the isolate, carbapenem in Combination (isolate PA23, combined with GN121) | susceptibility category of the isolate, carbapenem in Combination (isolate PA23, combined with GN123) | susceptibility category of the isolate, carbapenem in Combination (isolate PA24, combined with GN121) | susceptibility category of the isolate, carbapenem in Combination (isolate PA24, combined with GN123) | susceptibility category of the isolate, carbapenem in Combination (isolate WC-452, combined with GN123) | susceptibility category of the isolate, carbapenem in Combination (isolate WC-452, combined with GN351) | susceptibility category of the isolate, carbapenem in Combination (isolate WC-452, combined with GN370) | susceptibility category of the isolate, carbapenem in Combination (isolate WC-452, combined with GN428)

— patent publication US20210147498A1, “USE OF GRAM-NEGATIVE LYSIN-ANTIMICROBIAL PEPTIDE (AMP) POLYPEPTIDE CONSTRUCTS IN PULMONARY SURFACTANT AND BIOFILMS” (priority 2018, published 2021)
